Laboratory results: PMC11845477, “Exploring the principles behind antibiotics with limited resistance” (Nature Communications, 2025)
Where a SMILES comes first, the peptide text is derived from it. Bridges are numbered along the chain shown (N, C = ends). [ ]: non-standard residue; d: D form. The star is where a group is joined. X1 = NC[C@@H](CC(=O)*)c1cccc(Cl)c1; Dab = NCC[C@H](N)C(=O)O; Dap = NC[C@H](N)C(=O)O

Experiments:
[1] = system: A. baumannii ATCC 17978 (SEN) and A. baumannii ATCC BAA-1605 (MDR); assay: Frequency-of-resistance (FoR) assay, relative MIC of mutants; format: cell-based, Acinetobacter baumannii
Outline: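 Spontaneous resistant mutants selected on antibiotic agar (≈10^10 cells, 48 h, 37 °C); MICs of ten picked colonies measured by 18 h broth microdilution (OD600 < 0.05 = inhibition) and expressed as MICevolved/MICancestor.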

[2] = system: K. pneumoniae ATCC 10031 (SEN) and K. pneumoniae ATCC 700603 (MDR); assay: Adaptive laboratory evolution (ALE), relative MIC of evolved lines; format: cell-based, Klebsiella pneumoniae
Outline: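 Ten parallel populations per antibiotic–ancestor pair were evolved in MHB at 37 °C, starting near 50% growth-inhibiting drug. Every 72 h they were passaged into 0.5–2.5× increasing concentrations, keeping the highest-drug well with OD600 > 0.2.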

[3] = KP-MDR (Klebsiella pneumoniae ATCC 700603), evolved line 2

Structure (SMILES): CC(C)C[C@@H]1NC(=O)[C@@H](Cc2ccccc2)NC(=O)[C@H](CCN)NC(=O)[C@@H](NC(=O)[C@H](CN)NC(=O)[C@@H](NC(=O)C[C@H](CN)c2cccc(Cl)c2)[C@@H](C)O)CCNC(=O)[C@H]([C@@H](C)O)NC(=O)[C@H](CCN)NC(=O)[C@H](CCN)NC1=O [SPR206] (X1-T[Dap][Dab][Dab][dF]L[Dab][Dab]T; lactam 3-C (inferred); N-terminus assumed)
- MIC of evolved line ([1]; Acinetobacter baumannii ATCC 17978 (AB-SEN), evolved line 1): 0.125 µg/mL
- MIC of evolved line ([1]; Acinetobacter baumannii ATCC 17978 (AB-SEN), evolved line 2): 0.125 µg/mL
- MIC of evolved line ([1]; Acinetobacter baumannii ATCC 17978 (AB-SEN), evolved line 3): 0.125 µg/mL
- Relative MIC ([1]; Acinetobacter baumannii ATCC 17978 (AB-SEN), evolved line 1 versus ancestor): 1
- Relative MIC ([1]; Acinetobacter baumannii ATCC 17978 (AB-SEN), evolved line 2 versus ancestor): 1
- Relative MIC ([1]; Acinetobacter baumannii ATCC 17978 (AB-SEN), evolved line 3 versus ancestor): 1
- MIC of evolved line ([1]; Acinetobacter baumannii ATCC BAA 1605 (AB-MDR), evolved line 2): 0.25 µg/mL
- MIC of evolved line ([1]; Acinetobacter baumannii ATCC BAA 1605 (AB-MDR), evolved line 1): 0.25 µg/mL
- Relative MIC ([1]; Acinetobacter baumannii ATCC BAA 1605 (AB-MDR), evolved line 1 versus ancestor): 2
- Relative MIC ([1]; Acinetobacter baumannii ATCC BAA 1605 (AB-MDR), evolved line 2 versus ancestor): 2
- MIC of evolved line ([1]; Acinetobacter baumannii ATCC BAA 1605 (AB-MDR), evolved line 3): 0.25 µg/mL
- Relative MIC ([1]; Acinetobacter baumannii ATCC BAA 1605 (AB-MDR), evolved line 3 versus ancestor): 2
- Relative MIC ([1]; FoR assay, Acinetobacter baumannii ATCC 17978 (AB-SEN), evolved line 1): 1
- Relative MIC ([1]; FoR assay, Acinetobacter baumannii ATCC 17978 (AB-SEN), evolved line 2): 1
- Relative MIC ([1]; FoR assay, Acinetobacter baumannii ATCC 17978 (AB-SEN), evolved line 3): 1
- Relative MIC ([1]; FoR assay, Acinetobacter baumannii ATCC BAA 1605 (AB-MDR), evolved line 1): 2
- Relative MIC ([1]; FoR assay, Acinetobacter baumannii ATCC BAA 1605 (AB-MDR), evolved line 2): 2
- Relative MIC ([1]; FoR assay, Acinetobacter baumannii ATCC BAA 1605 (AB-MDR), evolved line 3): 2
- Relative MIC ([2]; ALE, K. pneumoniae ATCC 700603 (KP-MDR), evolved line 7): 512
- Relative MIC ([2]; ALE, K. pneumoniae ATCC 700603 (KP-MDR), evolved line 8): 1024
- Relative MIC ([2]; ALE, K. pneumoniae ATCC 700603 (KP-MDR), evolved line 9): 1024
- Relative MIC ([2]; ALE, K. pneumoniae ATCC 700603 (KP-MDR), evolved line 10): 512
- Relative MIC ([2]; ALE, Klebsiella pneumoniae ATCC 10031 (KP-SEN), evolved line 1): 2048
- Relative MIC ([2]; ALE, Klebsiella pneumoniae ATCC 10031 (KP-SEN), evolved line 2): 2
- Relative MIC ([2]; ALE, Klebsiella pneumoniae ATCC 10031 (KP-SEN), evolved line 3): 2048
- Relative MIC ([2]; ALE, Klebsiella pneumoniae ATCC 10031 (KP-SEN), evolved line 4): 2048
- Relative MIC ([2]; ALE, Klebsiella pneumoniae ATCC 10031 (KP-SEN), evolved line 6): 2048
- Relative MIC ([2]; ALE, Klebsiella pneumoniae ATCC 10031 (KP-SEN), evolved line 7): 2
- Relative MIC ([2]; ALE, Klebsiella pneumoniae ATCC 10031 (KP-SEN), evolved line 8): 2
- Relative MIC ([2]; ALE, Klebsiella pneumoniae ATCC 10031 (KP-SEN), evolved line 10): 2048
- Relative MIC ([2]; ALE, Klebsiella pneumoniae ATCC 700603 (KP-MDR), evolved line 1): 256
- Relative MIC ([2]; ALE, Klebsiella pneumoniae ATCC 700603 (KP-MDR), evolved line 2): 1024
- Relative MIC ([2]; ALE, Klebsiella pneumoniae ATCC 700603 (KP-MDR), evolved line 3): 512
- Relative MIC ([2]; ALE, Klebsiella pneumoniae ATCC 700603 (KP-MDR), evolved line 4): 256
- Relative MIC ([2]; ALE, Klebsiella pneumoniae ATCC 700603 (KP-MDR), evolved line 5): 256
- Relative MIC ([2]; ALE, Klebsiella pneumoniae ATCC 700603 (KP-MDR), evolved line 6): 512
- MIC of evolved line ([2]; KP-MDR (K. pneumoniae ATCC 700603), evolved line 1 of the given antibiotic): 128 µg/mL
- Relative MIC ([2]; KP-MDR (K. pneumoniae ATCC 700603), evolved line 1 vs ancestor): 256
- MIC of evolved line ([2]; KP-MDR (K. pneumoniae ATCC 700603), evolved line 2 of the given antibiotic): 512 µg/mL
- Relative MIC ([2]; KP-MDR (K. pneumoniae ATCC 700603), evolved line 2 vs ancestor): 1024
- MIC of evolved line ([2]; KP-MDR (K. pneumoniae ATCC 700603), evolved line 3 of the given antibiotic): 256 µg/mL
- Relative MIC ([2]; KP-MDR (K. pneumoniae ATCC 700603), evolved line 3 vs ancestor): 512
- MIC of evolved line ([2]; KP-MDR (K. pneumoniae ATCC 700603), evolved line 4 of the given antibiotic): 128 µg/mL
- Relative MIC ([2]; KP-MDR (K. pneumoniae ATCC 700603), evolved line 4 vs ancestor): 256
- MIC of evolved line ([2]; KP-MDR (K. pneumoniae ATCC 700603), evolved line 5 of the given antibiotic): 128 µg/mL
- Relative MIC ([2]; KP-MDR (K. pneumoniae ATCC 700603), evolved line 5 vs ancestor): 256
- MIC of evolved line ([2]; KP-MDR (K. pneumoniae ATCC 700603), evolved line 6 of the given antibiotic): 256 µg/mL
- Relative MIC ([2]; KP-MDR (K. pneumoniae ATCC 700603), evolved line 6 vs ancestor): 512
- MIC of evolved line ([2]; KP-MDR (K. pneumoniae ATCC 700603), evolved line 7 of the given antibiotic): 256 µg/mL
- Relative MIC ([2]; KP-MDR (K. pneumoniae ATCC 700603), evolved line 7 vs ancestor): 512
- MIC of evolved line ([2]; KP-MDR (K. pneumoniae ATCC 700603), evolved line 8 of the given antibiotic): 512 µg/mL
- Relative MIC ([2]; KP-MDR (K. pneumoniae ATCC 700603), evolved line 8 vs ancestor): 1024
- MIC of evolved line ([2]; KP-MDR (K. pneumoniae ATCC 700603), evolved line 9 of the given antibiotic): 512 µg/mL
- Relative MIC ([2]; KP-MDR (K. pneumoniae ATCC 700603), evolved line 9 vs ancestor): 1024
- MIC of evolved line ([2]; KP-MDR (K. pneumoniae ATCC 700603), evolved line 10 of the given antibiotic): 256 µg/mL
- Relative MIC ([2]; KP-MDR (K. pneumoniae ATCC 700603), evolved line 10 vs ancestor): 512
- Relative MIC ([2]; KP-MDR (Klebsiella pneumoniae ATCC 700603), evolved line 1): 256
- Relative MIC [2, 3]: 1024
- Relative MIC (log10) [2, 3]: 3.0103 log10
